Source: patent US11590129B2, “Combination therapy with an antitumor alkaloid” (PHARMA MAR, S.A., priority 2010, dated 2023)

Tests used:
[1] = tested on: U87-MG human glioblastoma cell line; assay: cells; conditions: Homo sapiens, U-87 MG, 72 h
[2] = tested on: A549 human lung carcinoma cell line; assay: MTT cytotoxicity assay in A549 cells: IC50 of single agents and combinations with PM01183; assay type: cell-based; conditions: Homo sapiens, A549, 72 h
Procedure, shortened: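 A549 cells seeded at 5,000 per well, grown 24 h drug-free, then exposed to vehicle or compounds for 72 h, either singly or combined with PM01183. Combination responses plotted against dose ratio relative to an additivity line.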

HGC-27 tumors = assay: Human gastric tumor xenografts (HGC-27) in athymic nude mice, tumor volume % T/C; assay type: in vivo
Procedure: Female athymic nude mice (Harlan Laboratories Models, S.L. (Barcelona, Spain) were utilized for all experiments. Animals were housed in individually ventilated cages, up to ten per cage in a 12-hour light-dark cycle at 21-23° C. and 40-60% humidity. The mice were allowed free access to irradiated standard rodent diet and sterilized water. Animals were acclimated for at least 5 days prior to tumor implantation with a tumor cell suspension.
HGC-27 cells were grown at 37° C. with 5% CO2 in Iscove's modified Dulbeco's medium (IDMD).
PM01183 was provided in the form of vials of lyophilized PM01183 cake which was reconstituted with water for infusion to a concentration of 0.2 mg/mL. The PM01183 stock solution was further diluted in 5% glucose solution for injection to the dosing formulation concentrations. Cisplatin and 5-fluorouracil were provided as solutions prepared by diluting the product with 0.9% saline solution for injection to the target final concentration.
Dose level groups were administered either as single agents or in combination.
Comparison of the median tumor volume in the treatment groups (T) to the median tumor volume in the control group (T/C×100%) was used for evaluation of the antitumor efficacy.

[3] = tested on: PC-3 human prostate cancer cell line; assay: cells; conditions: Homo sapiens, PC-3, 72 h
Procedure, shortened: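 Cells seeded at 5,000/well, grown 24 h drug-free, then exposed to vehicle or test compounds for 72 h. Viability by MTT reduction (8 h, 37 °C), formazan dissolved in DMSO. Values given as percentage of control cell growth.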

[4] = tested on: MOLT-4 human leukemia cell line; assay: cells; conditions: Homo sapiens, MOLT-4, 72 h
Procedure: (§1) Additional serial dilutions were prepared in serum-free culture medium to achieve a final 4× concentration. Aliquots of 50 μL of each diluted compound were added per well.
(§2) JURKAT and MOLT-4 were the human leukemia cell lines selected for this assay, which were obtained from the American Type Culture Collection (ATCC).
(§3) Briefly, cells were seeded in 96 well microtiter plates at a density of 50000 cells per well in 150 μL of culture medium and incubated for 4-6 hours in drug-free medium before treatment with vehicle alone or test compounds for 72 hours.
(§4) After incubation, the cytotoxic effect was evaluated using a MTT reduction assay. 50 μL of MTT solution (1 mg/mL) were added to the wells and incubated for 15-17 hours at 37° C. until formazan crystals were formed. After gently removing the culture medium, DMSO was added to dissolve the insoluble purple formazan product into a colored solution. […] Results were expressed as percentage of control cell growth. The EC50 values (half-maximal effective concentration) used for the combination studies were calculated using Prism v5.02 software (GraphPad). EC50 was expressed as molar concentration and represented the mean of at least three independent assays.
(§5) b. In a second set of experiments, concentration-response curves for the agents tested, both alone and in two-drug combination, were performed, using the same methodology described in the previous paragraph.
(§6) Using these starting concentrations, constant serial dilutions were performed to generate the concentration-response curves for each set of drugs, alone and in combination.
(§7) Based on this equation, the term “combination index” (CI) is used as a quantitative measure of the degree of drug interactions. […] CI values were calculated by solving the equation for different values of fa (i.e., for different degrees of cell groth inhibition).
(§8) Data were analyzed using CalcuSyn software (Biosoft, Cambridge, UK). For statistical analysis and graphs Prism software (GraphPad, San Diego, USA) was used. All the results represent the mean of at least three independent experiments.

[5] = tested on: JURKAT human leukemia cell line; assay: cells; conditions: Homo sapiens, Jurkat, 72 h
Procedure: as §1, §2, §3, §4, §5, §6, §7, §8

[6] = PM01183 0.045 mg/kg iv days 0,7, 5-fluorouracil study
[7] = PM01183 0.045 mg/kg iv days 0,7, cisplatin study
[8] = PM01183 0.09 mg/kg iv days 0,7, 5-fluorouracil study
[9] = PM01183 0.09 mg/kg iv days 0,7, cisplatin study
[10] = PM01183 0.135 mg/kg iv days 0,7, 5-fluorouracil study
[11] = PM01183 0.135 mg/kg iv days 0,7, cisplatin study
[12] = PM01183 0.18 mg/kg iv days 0,7, 5-fluorouracil study
[13] = PM01183 0.18 mg/kg iv days 0,7, cisplatin study

## COc1ccc2[nH]c3c(c2c1)CCN[C@]31CS[C@@H]2c3c(OC(C)=O)c(C)c4c(c3[C@H](COC1=O)N1[C@@H]2[C@H]2c3c(cc(C)c(OC)c3O)C[C@@H]([C@@H]1O)N2C)OCO4 [PM01183]
[1]
  IC50: 4.5 nM
[2]
  IC50: 3.6 nM
HGC-27 tumors; [6]
  % T/C on day 0: 99.9%
  % T/C on day 2: 84.3%
  % T/C on day 5: 103.2%
  % T/C on day 7: 104.6%
  % T/C on day 9: 103.5%
  % T/C on day 12: 101.6%
  % T/C on day 14: 85.0%
HGC-27 tumors; [7]
  % T/C on day 0: 98.9%
  % T/C on day 3: 85.9%
  % T/C on day 5: 83.1%
  % T/C on day 7: 92.1%
  % T/C on day 10: 76.4%
  % T/C on day 12: 81.6%
  % T/C on day 14: 88.5%
HGC-27 tumors; [8]
  % T/C on day 0: 100.6%
  % T/C on day 2: 90.5%
  % T/C on day 5: 87.6%
  % T/C on day 7: 83.4%
  % T/C on day 9: 82.6%
  % T/C on day 12: 76.7%
  % T/C on day 14: 67.7%
HGC-27 tumors; [9]
  % T/C on day 0: 98.6%
  % T/C on day 3: 67.5%
  % T/C on day 5: 67.9%
  % T/C on day 7: 66.1%
  % T/C on day 10: 70.2%
  % T/C on day 12: 60.3%
  % T/C on day 14: 65.0%
HGC-27 tumors; [10]
  % T/C on day 0: 100.2%
  % T/C on day 2: 81.5%
  % T/C on day 5: 58.7%
  % T/C on day 7: 61.4%
  % T/C on day 9: 60.2%
  % T/C on day 12: 54.6%
  % T/C on day 14: 55.1%
HGC-27 tumors; [11]
  % T/C on day 0: 97.9%
  % T/C on day 3: 71.6%
  % T/C on day 5: 59.9%
  % T/C on day 7: 47.8%
  % T/C on day 10: 39.3%
  % T/C on day 12: 37.1%
  % T/C on day 14: 38.3%
HGC-27 tumors; [12]
  % T/C on day 0: 99.6%
  % T/C on day 2: 78.6%
  % T/C on day 5: 50.9%
  % T/C on day 7: 43.3%
  % T/C on day 9: 41.0%
  % T/C on day 12: 33.0%
  % T/C on day 14: 29.2%
HGC-27 tumors; [13]
  % T/C on day 0: 99.6%
  % T/C on day 3: 65.9%
  % T/C on day 5: 55.6%
  % T/C on day 7: 38.7%
  % T/C on day 10: 33.5%
  % T/C on day 12: 24.3%
  % T/C on day 14: 24.3%
[3]
  IC50: 2.6 nM
[4]
  EC50: 0.857 nM
[5]
  EC50: 1.55 nM
